Measured values from patent publication US5733924A, “DC 107 derivatives and treatment methods” (Kyowa Hakko Kogyo Co., Ltd., priority 1995, dated 1998).

Each molecule was assayed on P388 Leukemia (assay: Antitumor activity against P388 leukemia in mice (increased life span)). Details: Mus musculus, P388, ip, 720 h, read-out: ILS (increased life span).
Type: in vivo, CDF1 mice
Experimental: Ascites were collected from the abdominal cavity of P388 ascites tumor-bearing cancer mice (DBA/2) on the 7th day after transplantation. A number of P388 cells in the ascites was counted, and a tumor cell floating liquid of 5×10^6 cells/ml was prepared using a physiological saline solution. Then, 0.2 ml of the solution containing 1×10^6 cells was transplanted into the abdominal cavity of CDF1 mice having a body weight of from 20 to 25 g.
The effect of the test compound was determined in terms of the ratio of average survival days of the group administered with the test compound to average survival days of the control group (non-medicated group) (i.e., an increased life span, ILS%).
Work on `C/C1=C\C(O)C(=NOCc2ccccc2)/C=C/C=C\c2csc(n2)C(C)N2C(=O)CC(C(C)(O)C(=O)SCc3oc(=O)oc3C)(CC1)[S+]2[O-]` (single isomer, unassigned) [Compound 73] yielded an ILS at 4 mg/kg of 43%. With `C/C1=C\C(O)C(=O)/C=C/C=C\c2csc(n2)C(C)N2C(=O)CC(C(C)(O)C(=O)SCOC(=O)C(C)(C)C)(CC1)[S+]2[O-]` (stereo not shown) [Compound 34] the ILS at 2 mg/kg was 48%. With `C/C1=C\C(O)C(=O)/C=C/C=C\c2csc(n2)C(C)N2C(=O)CC(C(C)(O)C(=O)SCc3oc(=O)oc3C)(CC1)[S+]2[O-]` (stereo not shown) [Compound 35] the ILS at 2 mg/kg was 65%. `C/C1=C\C(OC(=O)C2CCCCC2)C(=O)/C=C/C=C\c2csc(n2)C(C)N2C(=O)CC(C(C)(O)C(=O)SCc3oc(=O)oc3C)(CC1)[S+]2[O-]` (stereo not shown) [Compound 48] gave an ILS at 8 mg/kg of 47%. `C/C1=C\C(OC(=O)Oc2ccccc2)C(=O)/C=C/C=C\c2csc(n2)C(C)N2C(=O)CC(C(C)(O)C(=O)SCc3oc(=O)oc3C)(CC1)[S+]2[O-]` (stereo not shown) [Compound 55] was tested, and the ILS at 1 mg/kg was 40%. For `C/C1=C\C(OC(=O)OCc2ccccc2)C(=O)/C=C/C=C\c2csc(n2)C(C)N2C(=O)CC(C(C)(O)C(=O)SCc3oc(=O)oc3C)(CC1)[S+]2[O-]` (stereo not shown) [Compound 56], the ILS at 1 mg/kg was 63%. In the case of `C/C1=C\C(OC(=O)OCC2c3ccccc3-c3ccccc32)C(=O)/C=C/C=C\c2csc(n2)C(C)N2C(=O)CC(C(C)(O)C(=O)SCc3oc(=O)oc3C)(CC1)[S+]2[O-]` (stereo not shown) [Compound 57], the ILS at 4 mg/kg is reported as 53%. `COC1(OC2C=C(C)CCC3(C(C)(O)C(=O)SCc4oc(=O)oc4C)CC(=O)N(C(C)c4nc(cs4)C=CC=CC2=O)[S+]3[O-])CC[S+]([O-])CC1` (stereo not shown) [Compound 128] gave an ILS at 4 mg/kg of 84%.

Same assay, conditions: Mus musculus, P388, ip, 720 h; 1.0 mg/kg, single i.p. 24 hours after transplantation, CDF1 mice, 30 days observation; read-out: ILS (increased life span)
For `C/C1=C\C(OC(=O)Oc2ccccc2)C(=O)/C=C/C=C\c2csc(n2)C(C)NC(=O)CC2(CC1)[S+]([O-])SC(=O)C2(C)O` (stereo not shown) [Compound 12], the ILS at 1 mg/kg was 44%. Work on `C/C1=C\C(OC(=O)OCc2ccccc2)C(=O)/C=C/C=C\c2csc(n2)C(C)NC(=O)CC2(CC1)[S+]([O-])SC(=O)C2(C)O` (stereo not shown) [Compound 14] yielded an ILS at 1 mg/kg of 42%. With `COC1(OC2C=C(C)CCC3(C(C)(O)C(=O)SCc4oc(=O)oc4C)CC(=O)N(C(C)c4nc(cs4)C=CC=CC2=O)[S+]3[O-])CCS(=O)(=O)CC1` (stereo not shown) [Compound 129] the ILS at 1 mg/kg was 64%.

Same assay, conditions: Mus musculus, P388, ip, 720 h; 2.0 mg/kg, single i.p. 24 hours after transplantation, CDF1 mice, 30 days observation; read-out: ILS (increased life span)
Molecule `C/C1=C\C(OC(=O)c2cnc3ccccc3n2)C(=O)/C=C/C=C\c2csc(n2)C(C)NC(=O)CC2(CC1)[S+]([O-])SC(=O)C2(C)O` (stereo not shown) [Compound 9] has an ILS at 2 mg/kg of 44%. `C/C1=C\C(OC(=O)OCC(C)C)C(=O)/C=C/C=C\c2csc(n2)C(C)NC(=O)CC2(CC1)[S+]([O-])SC(=O)C2(C)O` (stereo not shown) [Compound 11] gave an ILS at 2 mg/kg of 50%. `CCOC(=O)OC1/C=C(\C)CCC2(C(C)(O)C(=O)SCOC(=O)C(C)(C)C)CC(=O)N(C(C)c3nc(cs3)/C=C\C=C\C1=O)[S+]2[O-]` (stereo not shown) [Compound 41] gave an ILS at 2 mg/kg of 40%. With `CCOC(=O)OC1/C=C(\C)CCC2(C(C)(O)C(=O)SCc3oc(=O)oc3C)CC(=O)N(C(C)c3nc(cs3)/C=C\C=C\C1=O)[S+]2[O-]` (stereo not shown) [Compound 53] the ILS at 2 mg/kg was 43%. For `C/C1=C\C(OC(=O)CNC(=O)OC(C)(C)C)C(=O)/C=C/C=C\c2csc(n2)C(C)NC(=O)CC2(CC1)[S+]([O-])SC(=O)C2(C)O` (stereo not shown) [Compound 96], the ILS at 2 mg/kg was 46%. Work on `CC1=CC(OC(=O)c2cccnc2)C(=O)C=CC=Cc2csc(n2)C(C)N2C(=O)CC(C(C)(O)C(=O)SCc3oc(=O)oc3C)(CC1)[S+]2[O-]` (stereo not shown) [Compound 144] yielded an ILS at 2 mg/kg of 49%. With `CC1=CC(OC(=O)Cc2cccnc2)C(=O)C=CC=Cc2csc(n2)C(C)N2C(=O)CC(C(C)(O)C(=O)SCc3oc(=O)oc3C)(CC1)[S+]2[O-]` (stereo not shown) [Compound 147] the ILS at 2 mg/kg was 60%. Work on `CC1=CC(OC(=O)CO)C(=O)C=CC=Cc2csc(n2)C(C)N2C(=O)CC(C(C)(O)C(=O)SCc3oc(=O)oc3C)(CC1)[S+]2[O-]` (stereo not shown) [Compound 154] yielded an ILS at 2 mg/kg of 48%.

Same assay, conditions: Mus musculus, P388, ip, 720 h; 4.0 mg/kg, single i.p. 24 hours after transplantation, CDF1 mice, 30 days observation; read-out: ILS (increased life span)
`C/C1=C\C(OC(=O)CN(C)C(=O)OCc2ccccc2)C(=O)/C=C/C=C\c2csc(n2)C(C)NC(=O)CC2(CC1)[S+]([O-])SC(=O)C2(C)O` (stereo not shown) [Compound 101] showed an ILS at 4 mg/kg of 48%. For `C/C1=C\C(OC(=O)[C@H](C)NC(=O)OC(C)(C)C)C(=O)/C=C/C=C\c2csc(n2)C(C)NC(=O)CC2(CC1)[S+]([O-])SC(=O)C2(C)O` (stereo partly shown) [Compound 102], the ILS at 4 mg/kg was 49%. Work on `C/C1=C\C(OC(=O)CCNC(=O)OCc2ccccc2)C(=O)/C=C/C=C\c2csc(n2)C(C)NC(=O)CC2(CC1)[S+]([O-])SC(=O)C2(C)O` (stereo not shown) [Compound 105] yielded an ILS at 4 mg/kg of 53%. In the case of `CC1=CC(OC(=O)C2CCC(=O)N2)C(=O)C=CC=Cc2csc(n2)C(C)N2C(=O)CC(C(C)(O)C(=O)SCc3oc(=O)oc3C)(CC1)[S+]2[O-]` (stereo not shown) [Compound 149], the ILS at 4 mg/kg is reported as 55%. In the case of `CC(=O)NCC(=O)OC1C=C(C)CCC2(C(C)(O)C(=O)SCc3oc(=O)oc3C)CC(=O)N(C(C)c3nc(cs3)C=CC=CC1=O)[S+]2[O-]` (stereo not shown) [Compound 160], the ILS at 4 mg/kg is reported as 62%.

Same assay, conditions: Mus musculus, P388, ip, 720 h; 8.0 mg/kg, single i.p. 24 hours after transplantation, CDF1 mice, 30 days observation; read-out: ILS (increased life span)
Work on `COC1(OC2/C=C(\C)CCC3(CC(=O)NC(C)c4nc(cs4)/C=C\C=C\C2=O)[S+]([O-])SC(=O)C3(C)O)CCCCC1` (stereo not shown) [Compound 91] yielded an ILS at 8 mg/kg of 48%. `COC1(OC2/C=C(\C)CCC3(CC(=O)NC(C)c4nc(cs4)/C=C\C=C\C2=O)[S+]([O-])SC(=O)C3(C)O)CCSCC1` (stereo not shown) [Compound 92] showed an ILS at 8 mg/kg of 48%. `C/C1=C\C(OC(=O)CNC(=O)[C@H](C)NC(=O)OCc2ccccc2)C(=O)/C=C/C=C\c2csc(n2)C(C)NC(=O)CC2(CC1)[S+]([O-])SC(=O)C2(C)O` (stereo partly shown) [Compound 110] was tested, and the ILS at 8 mg/kg was 58%. In the case of `C/C1=C\C(OC(=O)CNC(=O)CCNC(=O)OC(C)(C)C)C(=O)/C=C/C=C\c2csc(n2)C(C)NC(=O)CC2(CC1)[S+]([O-])SC(=O)C2(C)O` (stereo not shown) [Compound 112], the ILS at 8 mg/kg is reported as 67%. `C/C1=C\C(OC(=O)CNC(=O)C(CC(C)C)NC(=O)OCc2ccccc2)C(=O)/C=C/C=C\c2csc(n2)C(C)NC(=O)CC2(CC1)[S+]([O-])SC(=O)C2(C)O` (stereo not shown) [Compound 115] was tested, and the ILS at 8 mg/kg was 67%. `COC1(OC2C=C(C)CCC3(C(C)(O)C(=O)SCc4oc(=O)oc4C)CC(=O)N(C(C)c4nc(cs4)C=CC=CC2=O)[S+]3[O-])CCN(c2ccccc2)CC1` (stereo not shown) [Compound 131] was tested, and the ILS at 8 mg/kg was 60%. `CC1=CC(OC(=O)[C@@H]2CCCN2C(=O)OC(C)(C)C)C(=O)C=CC=Cc2csc(n2)C(C)N2C(=O)CC(C(C)(O)C(=O)SCc3oc(=O)oc3C)(CC1)[S+]2[O-]` (stereo partly shown) [Compound 148] was tested, and the ILS at 8 mg/kg was 49%. Work on `CC1=CC(OC(=O)CNC(=O)OCc2ccccc2)C(=O)C=CC=Cc2csc(n2)C(C)N2C(=O)CC(C(C)(O)C(=O)SCc3oc(=O)oc3C)(CC1)[S+]2[O-]` (stereo not shown) [Compound 157] yielded an ILS at 8 mg/kg of 98%. `CC1=CC(OC(=O)CNC=O)C(=O)C=CC=Cc2csc(n2)C(C)N2C(=O)CC(C(C)(O)C(=O)SCc3oc(=O)oc3C)(CC1)[S+]2[O-]` (stereo not shown) [Compound 159] showed an ILS at 8 mg/kg of 50%.

Same assay, conditions: Mus musculus, P388, ip, 720 h; 16 mg/kg, single i.p. 24 hours after transplantation, CDF1 mice, 30 days observation
`C/C1=C\C(OC(=O)CNC(=O)CCCNC(=O)OCc2ccccc2)C(=O)/C=C/C=C\c2csc(n2)C(C)NC(=O)CC2(CC1)[S+]([O-])SC(=O)C2(C)O` (stereo not shown) [Compound 113] showed an ILS at 16 mg/kg of 58%. Molecule `C/C1=C\C(OC(=O)CCNC(=O)CNC(=O)OCc2ccccc2)C(=O)/C=C/C=C\c2csc(n2)C(C)NC(=O)CC2(CC1)[S+]([O-])SC(=O)C2(C)O` (stereo not shown) [Compound 118] has an ILS at 16 mg/kg of 71%. Work on `C/C1=C\C(OC(=O)CCNC(=O)CCNC(=O)OCc2ccccc2)C(=O)/C=C/C=C\c2csc(n2)C(C)NC(=O)CC2(CC1)[S+]([O-])SC(=O)C2(C)O` (stereo not shown) [Compound 119] yielded an ILS at 16 mg/kg of 63%. In the case of `CC1=CC(OC2CCCCO2)C(=NO)C=CC=Cc2csc(n2)C(C)N2C(=O)CC(C(C)(O)C(=O)SCc3oc(=O)oc3C)(CC1)[S+]2[O-]` (stereo not shown) [Compound 125], the ILS at 16 mg/kg is reported as 54%.
